Data published in the supplement of paper PMC10307832.

Columns and labels:
Experiment in all cases: relative viability (nuclei count vs DMSO), 5 days (fraction); higher = more cells survive
Ponatinib + Linsitinib = compound: Cc1ccc(C(=O)Nc2ccc(CN3CCN(C)CC3)c(C(F)(F)F)c2)cc1C#Cc1cnc2cccnn12 [Ponatinib] + C[C@]1(O)C[C@@H](c2nc(-c3ccc4ccc(-c5ccccc5)nc4c3)c3c(N)nccn32)C1 [Linsitinib] (partner 1 µM)
Summary of the method: (§1)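 Dosing by pin tool came one day after lung cancer cell lines were seeded in 1536-well plates, using either one drug or a fixed anchor-drug dose plus five library-drug doses (not always all listed) in √10 steps. After 5 days, nuclei were counted on 4× images. Relative viability is treated-well nuclei count divided by vehicle-well nuclei count, and values are medians of duplicate plates.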

Pazopanib + Crizotinib = compound: Cc1ccc(Nc2nccc(N(C)c3ccc4c(C)n(C)nc4c3)n2)cc1S(N)(=O)=O [Pazopanib] + C[C@@H](Oc1cc(-c2cnn(C3CCNCC3)c2)cnc1N)c1c(Cl)ccc(F)c1Cl [Crizotinib] (partner 1 µM)
Summary of the method: as §1

Pazopanib + Pemetrexed = compound: Cc1ccc(Nc2nccc(N(C)c3ccc4c(C)n(C)nc4c3)n2)cc1S(N)(=O)=O [Pazopanib] + Nc1nc2[nH]cc(CCc3ccc(C(=O)N[C@@H](CCC(=O)O)C(=O)O)cc3)c2c(=O)[nH]1 [Pemetrexed] (partner 0.2 µM)
Summary of the method: as §1

Pazopanib + Olaparib = compound: Cc1ccc(Nc2nccc(N(C)c3ccc4c(C)n(C)nc4c3)n2)cc1S(N)(=O)=O [Pazopanib] + O=C(c1cc(Cc2n[nH]c(=O)c3ccccc23)ccc1F)N1CCN(C(=O)C2CC2)CC1 [Olaparib] (partner 8 µM)
Summary of the method: as §1

Cell Line | relative viability (Ponatinib + Linsitinib; first compound 0.002 µM) | relative viability (Ponatinib + Linsitinib; first compound 0.006325 µM) | relative viability (Ponatinib + Linsitinib; first compound 0.06325 µM) | relative viability (Ponatinib + Linsitinib; first compound 0.2 µM) | relative viability (Pazopanib + Crizotinib; first compound 0.01 µM) | relative viability (Pazopanib + Crizotinib; first compound 0.03162 µM) | relative viability (Pazopanib + Crizotinib; first compound 0.1 µM) | relative viability (Pazopanib + Crizotinib; first compound 0.3162 µM) | relative viability (Pazopanib + Crizotinib; first compound 1 µM) | relative viability (Pazopanib + Pemetrexed; first compound 0.01 µM) | relative viability (Pazopanib + Pemetrexed; first compound 0.03162 µM) | relative viability (Pazopanib + Pemetrexed; first compound 0.1 µM) | relative viability (Pazopanib + Pemetrexed; first compound 0.3162 µM) | relative viability (Pazopanib + Pemetrexed; first compound 1 µM) | relative viability (Pazopanib + Olaparib; first compound 0.01 µM) | relative viability (Pazopanib + Olaparib; first compound 0.03162 µM) | relative viability (Pazopanib + Olaparib; first compound 0.1 µM) | relative viability (Pazopanib + Olaparib; first compound 0.3162 µM) | relative viability (Pazopanib + Olaparib; first compound 1 µM)
BEN | 0.858 | 0.985 | 0.846 | 0.87 | 0.737 | 1.05 | 0.814 | 0.904 | 0.787 | 0.67 | 0.803 | 0.706 | 0.8 | 0.834 | 1.06 | 1.29 | 1.11 | 0.943 | 0.931
NCI-H23 | 0.501 | 0.602 | 0.705 | 0.608 | 0.594 | 0.474 | 0.577 | 0.735 | 0.591 | 0.529 | 0.727 | 0.702 | 0.658 | 0.829 | 0.315 | 0.343 | 0.297 | 0.321 | 0.36
201T | 0.958 | 1.11 | 1.06 | 1.01 | 1.05 | 1.07 | 1.03 | 1.06 | 1.06 | 0.369 | 0.331 | 0.318 | 0.333 | 0.323 | 0.863 | 0.865 | 0.85 | 0.825 | 0.822
NCI-H358 | 0.847 | 0.771 | 0.758 | 0.522 | 0.722 | 0.688 | 0.518 | 0.622 | 0.478 | 0.179 | 0.167 | 0.168 | 0.165 | 0.161 | 0.757 | 0.662 | 0.629 | 0.639 | 0.599
NCI-H520 | 0.773 | 1 | 0.867 | 0.628 | – | 0.894 | 0.991 | 0.672 | 0.747 | 0.642 | 0.728 | 0.768 | 0.755 | 0.602 | 0.38 | 0.277 | 0.414 | 0.348 | 0.285
HCC-15 | 0.923 | 0.873 | 0.953 | 0.815 | 0.773 | 0.924 | 1.01 | 0.813 | 0.893 | 0.215 | 0.226 | 0.223 | 0.209 | 0.231 | 0.689 | 0.671 | 0.697 | 0.723 | 0.672
LCLC-103H | 0.952 | 1.15 | 1.15 | 0.889 | 0.968 | 1.03 | 1.14 | 1.06 | 1.24 | 0.447 | 0.477 | 0.399 | 0.494 | 0.491 | 0.723 | 0.699 | 0.769 | 0.79 | 0.799
NCI-H460 | 0.74 | 0.795 | 1.1 | 0.744 | 0.931 | 1.15 | 0.849 | 1 | 0.963 | 0.0583 | 0.0636 | 0.0629 | 0.0703 | 0.0742 | 0.51 | 0.413 | 0.572 | 0.406 | 0.409
EPLC-272H | 1.06 | 1.24 | 1.31 | 0.801 | 0.771 | 1.11 | 1.07 | 0.885 | 1.03 | 0.313 | 0.461 | 0.318 | 0.332 | 0.353 | 0.87 | 0.792 | 1.06 | 0.944 | 0.845
